From ChEMBL document CHEMBL1122547, “Diastereomeric 6-desoxy-6-spiro-alpha-methylene-gamma-butyrolactone derivatives of naltrexone and oxymorphone. Selective irreversible inhibition of naltrexone binding in an opioid receptor preparation by a conformationally restricted michael acceptor ligand” (J Med Chem, 1984)
Where “and” joins values, the source holds several entries; their conditions need not be identical. Equal entries are not always repeated.

How the values were obtained:
Mus musculus [1] = species: Mus musculus; assay: Compound was tested for irreversible inhibition of [3H]- Naltrexone binding with 10 nM naloxone+ 5 nM protection in the presence of NaCl (washed); format: functional; set-up: scale not given: the % may be the effect or the level left
Mus musculus [2] = species: Mus musculus; assay: Compound was tested for irreversible inhibition of [3H]- Naltrexone binding with 10 nM naloxone+5 nM protection in the presence of NaCl (washed); format: functional; set-up: scale not given: the % may be the effect or the level left
Mus musculus [3] = species: Mus musculus; assay: Compound was tested for irreversible inhibition of [3H]- Naltrexone binding with 10 nM naloxone+ 5 nM protection in the presence of NaCl (unwashed); format: functional; set-up: scale not given: the % may be the effect or the level left
[4] = Ratio of IC50(presence of NaCl) to that of IC50(absence of NaCl)

SMILES | Control (Mus musculus [1]) | Control (Mus musculus [2]) | Control (Mus musculus [3]) | Ratio [4]
C=C1CC2(CCC3(O)[C@H]4Cc5ccc(O)c6c5[C@@]3(CCN4CC3CC3)C2O6)OC1=O (stereo in doubt; 5a) [listing 1 of 2 here] | 93% | 80% | 28% and 13% | 
C=C1CC2(CCC3(O)[C@H]4Cc5ccc(O)c6c5[C@@]3(CCN4CC3CC3)C2O6)OC1=O (stereo in doubt; 4a) |  |  |  | 0.8
C=C1CC2(CCC3(O)[C@H]4Cc5ccc(O)c6c5[C@@]3(CCN4C)C2O6)OC1=O (stereo in doubt; 4b) |  |  |  | 7.6
C=C1CC2(CCC3(O)[C@H]4Cc5ccc(O)c6c5[C@@]3(CCN4CC3CC3)C2O6)OC1=O (stereo in doubt; 5a) [listing 2 of 2 here] |  |  |  | 0.4
C=C1CC2(CCC3(O)[C@H]4Cc5ccc(O)c6c5[C@@]3(CCN4C)C2O6)OC1=O (stereo in doubt; 5b) |  |  |  | 7.1
